Test results reported in patent US11578054B2, “Compounds useful as immunomodulators” (Bristol-Myers Squibb Company, priority 2018, dated 2023).

Target: PD-1/PD-L1 (Homo sapiens (Human), UniProt Q9NZQ7)
Experiment: PD-1/PD-L1 Homogenous Time-Resolved Fluorescence (HTRF) binding assay
Details: PD-L1-His 10 nM, PD-1-Ig 20 nM
From the text: The ability of the compounds of formula (I) to bind to PD-L1 was investigated using a PD-1/PD-L1 Homogenous Time-Resolved Fluorescence (HTRF) binding assay.
Homogenous Time-Resolved Fluorescence (HTRF) binding assay.
The interaction of PD-1 and PD-L1 can be assessed using soluble, purified preparations of the extracellular domains of the two proteins. The PD-1 and PD-L1 protein extracellular domains were expressed as fusion proteins with detection tags, for PD-1, the tag was the Fc portion of Immunoglobulin (PD-1-Ig) and for PD-L1 it was the 6 histidine motif (PD-L1-His). All binding studies were performed in an HTRF assay buffer consisting of dPBS supplemented with 0.1% […] bovine serum albumin and 0.05% (v/v) Tween-20. For the h/PD-L1-His binding assay, inhibitors were pre-incubated with PD-L1-His (10 nM final) for 15m in 4 μl of assay buffer, followed by addition of PD-1-Ig (20 nM final) in 1 µl of assay buffer and further incubation for 15m. HTRF detection was achieved using europium crypate-labeled anti-Ig (1 nM final) and allophycocyanin (APC) labeled anti-His (20 nM final). Antibodies were diluted in HTRF detection buffer and 5 μl was dispensed on top of the binding reaction. The reaction mixture was allowed to equilibrate for 30 minutes and the resulting signal (665 nm/620 nm ratio) was obtained using an EnVision fluorometer. Additional binding assays were established between the human proteins PD-1-Ig/PD-L2-His (20 & 5 nM, respectively) and CD8O-His/PD-L1-Ig (100 & 10 nM, respectively).
Recombinant Proteins: Human PD-1 (25-167) with a C-terminal human Fc domain of immunoglobulin G (Ig) epitope tag [hPD-1 (25-167)-3S-IG] and human PD-L1 (18-239) with a C-terminal His epitope tag [hPD-L1(18-239)-TVMV-His] were expressed in HEK293T cells and purified sequentially by ProteinA affinity chromatography and size exclusion chromatography. Human PD-L2-His and CD8O-His was obtained through commercial sources.
The table below lists the IC50 values for representative examples of this disclosure measured in the PD-1/PD-L1 Homogenous Time-Resolved Fluorescence (HTRF) binding assay.

Chain of PD-1/PD-L1 (Q9NZQ7 other isoform, or with tags, fused parts or gaps): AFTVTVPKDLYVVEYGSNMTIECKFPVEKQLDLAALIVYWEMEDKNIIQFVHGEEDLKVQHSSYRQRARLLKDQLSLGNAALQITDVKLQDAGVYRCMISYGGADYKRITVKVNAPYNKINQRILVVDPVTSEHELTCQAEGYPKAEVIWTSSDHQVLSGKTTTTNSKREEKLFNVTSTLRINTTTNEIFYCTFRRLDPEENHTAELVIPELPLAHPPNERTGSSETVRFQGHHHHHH

IC50: 1 nM
Structure (SMILES): N#Cc1cncc(COc2cc(OC3CCc4c(-c5cccc(OCCCNC[C@H](O)CO)c5Cl)cccc43)c(Cl)cc2CN[C@@H](CCO)C(=O)O)c1 (stereo partly drawn) [Example 1021, (5-Chloro-4-((4-(2-chloro-3-(3-(((S)-2,3-dihydroxypropyl)amino)propoxy)phenyl)-2,3-dihydro-1H-inden-1-yl)oxy)-2-((5-cyanopyridin-3-yl)methoxy)benzyl)-L-homoserine]
